The record followed here is a melting point compilation (Tetko et al.; mined from patent text by program, amines drawn as free bases though some values may be those of a salt).

A word on the melting point: it is the temperature, or range, at which the solid turns liquid. Consider `Cn1cc(-c2ccccc2)c(=O)c(S(=O)(=O)c2ccccc2)c1`, for which the melting point lay within 218 to 220 °C. In turn, `Cc1ccc(Cc2cnc(NCCCN(Cc3ccccc3)c3ccccn3)[nH]c2=O)cn1` registered a melting point of 90 to 96 °C. In turn, `O=CNCC(=O)c1ccc(Cl)s1` had a melting point of 111 to 113 °C. The same measure for `CC1(C)[C@@H](C=C(c2ccccc2)c2ccccc2)[C@@H]1C(=O)O` (relative stereo): 115 °C; for `CCc1n[nH]c(=O)c2c(C)ncn12`: 175 to 178 °C. `CC(C)c1cccc(C(C)C)c1NC(=O)NCC1(O)CCCc2ccccc21` (stereo unspecified) registered a melting point of 170 to 171 °C. For `CCOC(=O)c1cn(C)c2ccc(C(=O)c3c(C)c(OC)c4ccccn34)cc2c1=O` the value was 258 °C; for `CCOC(=O)c1cnc(S(=O)Cc2ccccc2)n1-c1c(CC)cccc1CC` (stereo unspecified), 82 to 83 °C. The same measure for `CCOC(=O)N1CCC(=NO)c2cc(F)ccc21`: 122 to 124 °C. Turning to `CC(=O)N(CC(=O)O)c1ccc(C)cc1C`, the melting point lay within 165 to 172 °C. The same measure for `Cc1ccc2c(=O)c(-c3nnnn3C)cn(C)c2c1`: 254 to 255 °C; for `COc1cc(OC)c(-c2cc3ccccc3[nH]2)cc1C=CC(=O)c1ccc(S(=O)(=O)Nc2ccccn2)cc1`: 206 to 208 °C; for `C=CC(CCc1ccccc1)NC(=O)OC(C)(C)C` (stereo unspecified): 53 °C. The same measure for `Cc1ccc(Nc2ncccc2N)c(C)c1[N+](=O)[O-]`: 173 to 175 °C; for `Cc1oc(-c2cccs2)nc1COc1ccc(CON=C(CCCCCCC(=O)O)c2ccccc2)cc1`: 106 to 108 °C.

Compound `NC(C(=O)O)c1c(C(=O)O)csc1-c1ccccc1` (stereo unspecified) yielded a melting point of 266 to 271 °C. For `CC(C)Cn1c(=O)n(C)c(=O)c2c(SCCCO)c(Cc3cccnc3)sc21` the value was 119 to 121 °C; for `CC(Nc1ccc([N+](=O)[O-])cc1)c1ccccc1` (stereo unspecified), 95 to 96 °C.

`COC(=O)C(C)(C)Oc1ccc(C(=O)c2cccs2)cc1`: the melting point turned out to be 85 °C. For `COC(=O)COc1ccc(C(=O)CN)cc1` the value was 135 to 136 °C; for `O=C(CSC(=S)N1Cc2[nH]c3ccccc3c2CC1C(=O)O)c1ccccc1` (stereo unspecified), 116 °C; for `CC(F)C(C)(N)C(N)=O` (stereo unspecified), 81 °C. Take `CC(C)COC(=O)ON1C(=O)CCC1=O`: the melting point was 33 to 35 °C.

With `COC(=O)CCC(=O)c1cc(C(=O)N(C)C)cs1`, the melting point is 98 to 100 °C. For `CCC1Nc2cc(F)ccc2-n2cccc21` (stereo unspecified) the value was 49 to 51 °C; for `C=CCOC(=O)c1c(Cl)c(OC)cc(O[Si](C)(C)C(C)(C)C(C)C)c1C=O`, 97 °C. `CCOC(=O)c1cn(CC(I)=C(I)I)c(Cl)c1Cl` yielded a melting point of 117 to 119 °C. Take `O=C(O)c1cn(C2CC2)c2nc(N3CCCC(n4ccnn4)C3)c(F)cc2c1=O` (stereo unspecified): the melting point is 251 to 254 °C. For `COC(=O)CC1=C(C)/C(=C/c2ccc(SC)cc2)c2ccc(F)cc21` the value was 73 to 75 °C; for `CCOC(=O)c1cn(C)cc(-c2cccc(C(F)(F)F)c2)c1=O`, 151 to 152 °C; for `CC1(C)CCc2ncc([N+](=O)[O-])cc2C1`, 99 to 101 °C.

With `Cc1cc(C(=O)N2Cc3cccn3Cc3ccccc32)cc(C)c1-n1c(C)ccc1C`, the melting point lay in the range of 104 to 106 °C. For `O=[N+]([O-])c1ccc(-c2ccc(S(=O)c3ccc(Cl)c([N+](=O)[O-])c3)cc2)cc1` (stereo unspecified) the value was 220 to 222 °C; for `Cc1ccc(S(=O)(=O)NC(=O)Nc2ccc(C(F)(F)F)cc2)cc1`, 194 to 197 °C.

Compound `CCOC(=O)C1=C(C)NC2=C(C(=O)OC2)C1c1cccc2ncc(-c3ccccc3)cc12` (stereo unspecified) displayed a melting point of 257 to 260 °C. For `CC(C)c1cc(OCC(=O)N(Cc2ccccc2)Cc2ccccc2)cc2c1C(=O)N(COC(=O)c1c(Cl)cccc1Cl)S2(=O)=O` the value was 110 to 112 °C. `N#Cc1ccc(NC(=CNCC(=O)O)[N+](=O)[O-])cc1`: the melting point came out at 230 °C.

The compound `NC(=O)c1cc(CN2C(=O)C3(COc4cc5c(cc43)OCO5)c3ccccc32)oc1C(F)(F)F` (stereo unspecified) registered a melting point of 172 to 174 °C. For the compound `O=C(NCCCl)NC(c1cccc(C(F)(F)F)c1)C(F)(F)F` (stereo unspecified), the melting point fell in the range of 124 to 128 °C. For `COP(=O)(CC(=O)C(C)(C)Cc1ccccc1)OC` the value was 39 to 46 °C; for `O=Cc1ccc(N(c2ccccc2)c2ccc3c4c(cccc24)CC3)cc1`, 138 to 141 °C; for `Cc1nc(-n2ccc(C(F)(F)F)cc2=O)sc1C(=O)NCc1cccnc1`, 172 to 173 °C. For `C=C(C)c1nn(-c2c(Cl)cc(C(F)(F)F)cc2Cl)cc1C1CC1(Br)Br` (stereo unspecified) the value was 86.5 to 88.2 °C; for `O=C(O)c1ccc2oc3ccncc3c(=O)c2c1`, above 300 °C; for `N#CC=Cc1ccc(C(=O)Cl)cc1`, 154 °C. Consider `O=S(=O)(NCC(O)(Cn1cncn1)c1ccc(Cl)cc1Cl)c1ccc2ccccc2c1` (stereo unspecified), for which the melting point is 179 to 180 °C. `COc1cc2c(cc1OCc1ccccc1)C(OC)CN(Cc1cc(OC)c(OC)c(OC)c1)C2` (stereo unspecified) had a melting point of 89 to 90 °C. For `COc1ccc(C=O)cc1OC(=O)CCl` the value was 88 to 89 °C.

In turn, `NC(=O)C1(C2c3[nH]c4ccc(Cl)cc4c3CCN2C=O)CCC1` (stereo unspecified) returned a melting point above 260 °C. For `O=C1CNc2ccccc2CN1` the value was 167 to 170 °C; for `N#CC=Cc1ccc(Br)cc1`, 106 °C; for `CC1CC(=O)NN=C1c1cccc(C(F)(F)F)c1` (stereo unspecified), 132 to 134 °C.

Compound `CCCCCOc1cc2c(cc1OCc1cccc(C(=O)OC)c1)C(=O)CC2` displayed a melting point of 110 to 111 °C. Take `O=C(O)C=Cc1ccc(-n2ccccc2=O)cc1`: the melting point fell in the range of 279 to 282 °C.

`O=C(O)CCc1cc(Cl)cc2nc(-c3ccccc3Cl)oc12` registered a melting point of 152 to 154 °C. In turn, `CCOC(=O)Oc1cc(C(C)(C)C)oc(=O)c1-c1c(C)cc(C)cc1C` had a melting point of 92 to 94 °C. The same measure for `c1ccc2c(c1)CN(Cc1nc3ccccc3[nH]1)C2`: 172 to 174 °C; for `CS(=O)(=O)Nc1cc(C(O)CNC2CCN(c3ccc(C=C4SC(=O)NC4=O)cc3F)CC2)ccc1O` (stereo unspecified): above 225 °C. The same measure for `O=c1n(-c2cccc(Cl)c2)c(=O)n(SC(Cl)(Cl)Cl)n1SC(Cl)(Cl)Cl`: 153 °C. With `Cc1ccc2c3c(c(=O)oc2c1)CN(CCN1CC2CCC(CC2)C1)CC3`, the melting point lay in the range of 155 to 157 °C. As to `NCCC(=O)NCCCO`, the melting point is 140 to 142 °C. The same measure for `C[Si](C)(C)COc1cc([N+](=O)[O-])ccc1N`: 87 °C; for `Nc1cc(C=O)ncc1F`: 133 to 135 °C; for `C=CCn1c(=O)c(C(=O)OCC)c(O)c2ccc(C)nc21`: 110 to 112 °C. For `CS(=O)(=O)Nc1cccc(Nc2nc(NCCc3ccccn3)c3nc[nH]c3n2)c1` the value was 199 to 202 °C; for `Cn1cc(C2=C(c3cn(C)c4cc(C#N)ccc34)C(=O)NC2=O)c2ccc(N)cc21`, 255 to 260 °C.
